The text below walks through data of ChEMBL document CHEMBL2073825, “Ex vivo reversal of chemoresistance by tariquidar (XR9576)” (Anticancer Drugs, 2004).

The target in this series is ATP-dependent translocase ABCB1 (Homo sapiens, UniProt P08183). The experiment in a line: TP_TRANSPORTER: Vinorelbine-induced cytotoxicity in P-gp positive tumor. The class given is functional, tissue-based, Neoplasm.
ATP-dependent translocase ABCB1, sequence (P08183 whole entry): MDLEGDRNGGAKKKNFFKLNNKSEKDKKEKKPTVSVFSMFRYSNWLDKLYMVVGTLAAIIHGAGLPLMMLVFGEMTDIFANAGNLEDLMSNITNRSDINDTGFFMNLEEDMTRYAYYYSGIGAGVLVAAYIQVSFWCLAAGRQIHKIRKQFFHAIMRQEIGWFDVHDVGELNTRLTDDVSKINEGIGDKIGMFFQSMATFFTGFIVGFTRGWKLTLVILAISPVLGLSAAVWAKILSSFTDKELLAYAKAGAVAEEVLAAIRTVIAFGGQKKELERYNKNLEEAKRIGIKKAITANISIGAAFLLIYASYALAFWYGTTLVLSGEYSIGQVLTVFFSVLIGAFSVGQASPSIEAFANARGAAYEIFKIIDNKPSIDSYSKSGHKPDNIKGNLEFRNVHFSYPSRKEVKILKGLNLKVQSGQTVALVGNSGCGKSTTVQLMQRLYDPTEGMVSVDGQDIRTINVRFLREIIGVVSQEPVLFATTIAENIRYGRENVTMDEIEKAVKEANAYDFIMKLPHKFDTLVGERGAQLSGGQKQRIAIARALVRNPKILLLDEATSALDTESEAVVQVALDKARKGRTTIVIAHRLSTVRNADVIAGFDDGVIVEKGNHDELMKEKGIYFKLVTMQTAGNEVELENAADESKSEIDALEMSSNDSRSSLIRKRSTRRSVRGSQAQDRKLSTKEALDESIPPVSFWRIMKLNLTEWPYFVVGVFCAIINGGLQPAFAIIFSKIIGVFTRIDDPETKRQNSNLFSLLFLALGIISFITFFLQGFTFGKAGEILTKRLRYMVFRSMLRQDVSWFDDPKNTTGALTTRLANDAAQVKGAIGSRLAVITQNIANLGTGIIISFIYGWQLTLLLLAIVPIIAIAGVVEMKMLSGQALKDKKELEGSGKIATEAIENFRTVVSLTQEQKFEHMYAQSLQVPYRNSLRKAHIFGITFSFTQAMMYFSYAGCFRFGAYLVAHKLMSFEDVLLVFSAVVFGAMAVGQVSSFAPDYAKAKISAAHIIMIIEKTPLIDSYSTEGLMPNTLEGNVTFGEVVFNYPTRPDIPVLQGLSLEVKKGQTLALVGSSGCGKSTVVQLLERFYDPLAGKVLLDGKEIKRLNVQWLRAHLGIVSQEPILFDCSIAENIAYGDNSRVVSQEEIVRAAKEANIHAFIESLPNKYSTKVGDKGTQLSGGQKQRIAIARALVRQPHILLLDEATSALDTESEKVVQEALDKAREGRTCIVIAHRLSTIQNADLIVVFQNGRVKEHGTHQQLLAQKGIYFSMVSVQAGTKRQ

As to `COc1cc2c(cc1OC)CN(CCc1ccc(NC(=O)c3cc(OC)c(OC)cc3NC(=O)c3cnc4ccccc4c3)cc1)CC2` [TARIQUIDAR], the Activity result is “inhibitor [+]”.
